Read-outs that look alike come from different tables or passages of the source.
Legend:
[1] = target: T1, serotonin reuptake in synaptosomes from rat cortex (Rattus norvegicus, UniProt P31652); details: read-out: Serotonin (IC50 μg/ml); literature value, Markowitz et al.; cited from earlier work
T1 construct: Freshly isolated synaptosomes from rats were used; from tissue; host or cells: synaptosomes from rat cortex

[2] = test system: noradrenaline reuptake in synaptosomes from rat cortex; details: literature value, cited from earlier work
[3] = target: T1, serotonin reuptake in synaptosomes from rat cortex; assay: Serotonin reuptake test with [3H]-serotonin in freshly isolated synaptosomes; type: biochemical; details: ratio of reuptake IC50 values
Description: Freshly isolated synaptosomes from rats were used according to Perovic and Müller [Perovic S, Müller W E, 1995, Arzneimittelforschung 45; 1145-1148] for a dopamine reuptake test, and a serotonin reuptake test, and a noradrenaline reuptake test. [^3H]-dopamine, [^3H]-noradrenaline and [^3H]-serotonin, respectively, served as the ligands. The test substance was incubated with the synaptosomes and the corresponding ligand for 15 min at 37° C. in the dark. The samples were then transferred to GF/C filter plates, and washed cold twice, and dried, before the filter-bound radioactivity was measured with a microtitration plate counter (Microbeta, Wallac, Finland). For determining the 100% reuptake, the experiment was performed without test substances. The measured value for incubation with corresponding inhibitors (GBR12909 in the dopamine reuptake inhibition, protriptyline in the noradrenaline reuptake inhibition, and imipramine hydrochloride for the serotonin reuptake inhibition) was considered as a 0% uptake.

[4] = target: T2, dopamine reuptake in synaptosomes from rat cortex (Rattus norvegicus, UniProt P23977); details: read-out: Dopamine (IC50 μg/ml), literature value, cited from earlier work
T2 construct: Freshly isolated synaptosomes from rats were used; from tissue; host or cells: synaptosomes from rat cortex

[5] = test system: transgenic C. elegans strain CL4176 expressing human β-amyloid (Aβ 1-42); assay: β-Amyloid-induced toxicity (paralysis, PT50) in C. elegans model; type: in vivo, Caenorhabditis elegans; details: 200 μg/ml; negative control 31.0 ± 0.4
Description: In order to test the effect on β-amyloid toxicity, the transgenic C. elegans strain CL4176, which can express human β-amyloid (Aβ 1-42), was employed. Aβ expression can be induced by increasing the temperature. Age-synchronized and treated worms were incubated at 16° C. for 48 hours. After increasing the temperature to 25° C. and incubation for 24 hours, the worms began to get paralyzed because of the toxicity of the Aβ oligomer. The paralysis was evaluated every 2 hours (experimental set-up according to Heiner et al.: Sideritis scardica extracts inhibit the aggregation of α-synuclein and β-amyloid peptides in Caenorhabditis elegans used as a model for neurodegenerative diseases. Planta Medica 81—PW_127, 2015). Substances that counteract this toxic effect of β-amyloid lead to a slower or later paralysis of the animals. Such substances delay the neurodegeneration, inter alia, in Alzheimer's dementia. The median (PT50), which is the time when exactly 50% of the nematodes were paralyzed, was used as a comparative value.

[6] = test system: transgenic C. elegans strain CL2355 expressing human β-amyloid pan-neuronally; assay: β-Amyloid-induced neuronal dysfunction, chemotaxis towards benzaldehyde; type: in vivo, Caenorhabditis elegans
Description: β-Amyloid species can damage neurons and trigger a dysfunction of neuronally controlled behavior. The transgenic C. elegans strain CL2355 expresses human β-amyloid on a pan-neuronal level. This leads to cognitive disorders, such as reduced chemotactic movement towards an attractant (benzaldehyde). In the experiments, the chemotaxis index, i.e., the proportion of worms moved towards the attractant on the agar plate, was measured. […] The experiment was performed in accordance with […] et al.

[7] = test system: dopaminergic neurons of transgenic C. elegans strain BZ555; assay: Protection of dopaminergic neurons from 6-OHDA-induced degeneration (GFP fluorescence); type: in vivo, Caenorhabditis elegans; details: worms + 50 mM 6-OHDA + 100 μg/ml; negative control 34.3 ± 4.3
Description: 6-Hydroxydopamine (6-OHDA) damages dopaminergic neurons, which is used in different animal models. The transgenic C. elegans strain BZ555 expresses green fluorescent protein in dopaminergic neurons. Thus, the 6-OHDA-induced neurodegeneration or the reduction thereof can be quantified by fluorescence microscopy. The worms were exposed to 50 mM 6-OHDA, which reduces the fluorescence intensity of the neurons because of the degeneration thereof. Bupropione, a selective noradrenaline and dopamine reuptake inhibitor (NDRI), serves as the positive control. Through the inhibition of the noradrenaline (NA) or dopamine (DA) transporters (reuptake), bupropion prevents the neurotoxin 6-OHDA from getting into and damaging the neurons.

T1 sequence (P31652 whole entry): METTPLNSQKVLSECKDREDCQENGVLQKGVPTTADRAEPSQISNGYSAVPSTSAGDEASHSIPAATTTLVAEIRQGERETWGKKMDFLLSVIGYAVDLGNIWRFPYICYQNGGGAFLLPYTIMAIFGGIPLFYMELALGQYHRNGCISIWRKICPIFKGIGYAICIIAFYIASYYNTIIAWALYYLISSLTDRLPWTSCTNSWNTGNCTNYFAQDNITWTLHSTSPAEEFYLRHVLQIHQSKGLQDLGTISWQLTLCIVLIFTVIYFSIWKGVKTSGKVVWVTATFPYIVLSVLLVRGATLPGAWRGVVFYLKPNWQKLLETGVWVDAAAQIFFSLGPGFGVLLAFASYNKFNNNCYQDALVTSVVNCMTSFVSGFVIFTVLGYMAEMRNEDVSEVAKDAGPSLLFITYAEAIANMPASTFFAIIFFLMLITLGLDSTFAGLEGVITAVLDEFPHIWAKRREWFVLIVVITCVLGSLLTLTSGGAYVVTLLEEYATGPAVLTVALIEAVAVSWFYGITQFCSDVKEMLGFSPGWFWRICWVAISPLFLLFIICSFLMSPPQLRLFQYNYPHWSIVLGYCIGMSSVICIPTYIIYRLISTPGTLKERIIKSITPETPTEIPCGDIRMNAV
T2 sequence (P23977 whole entry): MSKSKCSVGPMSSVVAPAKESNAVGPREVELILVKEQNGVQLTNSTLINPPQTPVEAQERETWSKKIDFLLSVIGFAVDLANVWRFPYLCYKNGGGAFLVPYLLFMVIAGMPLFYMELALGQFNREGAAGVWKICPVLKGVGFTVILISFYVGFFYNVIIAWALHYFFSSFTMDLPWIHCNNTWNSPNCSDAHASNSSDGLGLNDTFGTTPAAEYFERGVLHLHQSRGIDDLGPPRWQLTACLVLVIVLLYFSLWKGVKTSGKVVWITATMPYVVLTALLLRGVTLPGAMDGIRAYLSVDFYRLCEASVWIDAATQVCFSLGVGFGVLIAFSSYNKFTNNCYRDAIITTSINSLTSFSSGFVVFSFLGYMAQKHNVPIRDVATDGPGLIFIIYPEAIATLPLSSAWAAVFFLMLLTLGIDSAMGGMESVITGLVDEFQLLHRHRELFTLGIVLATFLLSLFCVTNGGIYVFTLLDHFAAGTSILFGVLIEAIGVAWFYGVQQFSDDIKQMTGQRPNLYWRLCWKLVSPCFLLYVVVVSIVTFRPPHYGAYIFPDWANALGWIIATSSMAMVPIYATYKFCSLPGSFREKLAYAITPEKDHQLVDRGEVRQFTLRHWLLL

Q: With COC(=O)C(c1ccccc1)C1CCCCN1 (stereo not shown) [Methylphenidate] as the compound, how does the IC50 [1] read?
A: 18.5 µM

Q: What about the “Noradrenaline (IC50 μg/ml)” value ([2]; Markowitz et al.) of the same compound?
A: 0.052 µg/mL

Q: What about the “Noradrenaline (IC50 μg/ml)” value ([2]; Sommer et al.) of the same compound?
A: 0.050 µg/mL

Q: What about the “activity ratio of serotonin to noradrenaline (factor)” value [3] of the same compound?
A: 86

Q: And the IC50 ([4]; Markowitz et al.)?
A: 1.11 µM

Q: What about the IC50 ([4]; Sommer et al.) of the same compound?
A: 0.489 µM

Q: Which “PT50 value” [5] does the source give for C[C@@H]1O[C@@H](O[C@@H]2[C@@H](O)[C@H](OCCc3ccc(O)c(O)c3)O[C@H](CO)[C@H]2OC(=O)/C=C/c2ccc(O)c(O)c2)[C@H](O)[C@H](O)[C@H]1O [acteoside] here?
A: 32.8 ± 0.3 h

Q: And the “share of the chemotaxis index of the control strain CL2122 reached” value ([6]; 200 μg/ml)?
A: about 88%

Q: What about the Chemotaxis index ([6]; CL2355, 200 μg/ml, untreated 0.10 ± 0.04, control strain CL2122 0.50 ± 0.09) of the same compound?
A: 0.45 ± 0.02 (p < 0.05)

Q: For CC(NC(C)(C)C)C(=O)c1cccc(Cl)c1 (stereo not shown) [bupropion], which “Fluorescence intensity [% of untreated group]” value [7] is on record?
A: 68.2 ± 7.7 % of untreated group

— patent US12295983B2, “Use of extracts of the leaves of lemon verbena (Aloysia citriodora) for increasing the neuronal, cerebral availability of neurotransmitters selected from the group of serotonin, dopamine, noradrenaline” (Finzelberg GMBH & Co. KG, priority 2018, dated 2025)
